# How the values were obtained:
# [1] = system: rabbit serum obtained by immunizing a rabbit with the SARS-CoV strain Frankfurt 1; type: binding; set-up: Binding of a rabbit serum to linear peptides / Binding of a rabbit serum to looped peptides / Rabbit serum linear peptides / Rabbit serum looped peptides / Binding of a rabbit serum to linear peptides of protein N of SARS-CoV Urbani (Rabbit serum linear peptides) / Binding of a rabbit serum to looped/cyclic peptides of protein N of SARS-CoV Urbani (Rabbit serum looped peptides): unit not given here
# [2] = system: antibodies in sera from SARS patients (sera 1a, 1b, 2, 6, 37, 62, London, SARS-yellow, SARS-green); type: binding, human; set-up: Binding of serum 6 to linear peptides of protein X1 of SARS-CoV Urbani / Binding of serum 37 to linear peptides of protein X1 of SARS-CoV Urbani / Binding of serum 6 to looped/cyclic peptide (PEPSCAN-ELISA) / Binding of serum 37 to looped/cyclic peptide (PEPSCAN-ELISA) / Binding of serum 37 to looped/cyclic peptides of protein X1 of SARS-CoV Urbani / Binding of serum 6 to linear peptides of protein X2 / Binding of serum 37 to linear peptides of protein X2 / Binding of serum 37 to looped/cyclic peptides of protein X2 of SARS-CoV Urbani / Binding of serum 6 to linear peptides of protein M of SARS-CoV Urbani / Binding of serum 37 to linear peptides of protein M of SARS-CoV Urbani / Binding of serum 6 to looped/cyclic peptides of protein M of SARS-CoV Urbani / Binding of serum 37 to looped/cyclic peptides of protein M of SARS-CoV Urbani / Binding of serum 6 to linear peptides of protein X3 of SARS-CoV Urbani / Binding of serum 37 to linear peptides of protein X3 of SARS-CoV Urbani / Binding of serum 37 to looped/cyclic peptides of protein X3 of SARS-CoV Urbani / Binding of serum 6 to linear peptides of protein X4 of SARS-CoV Urbani / Binding of serum 37 to linear peptides of protein X4 of SARS-CoV Urbani / Binding of serum 37 to looped/cyclic peptides of protein X4 of SARS-CoV Urbani / Binding of serum 6 to linear peptides of protein X5 of SARS-CoV Urbani / Binding of serum 37 to linear peptides of protein X5 of SARS-CoV Urbani / Binding of serum 37 to looped/cyclic peptides of protein X5 of SARS-CoV Urbani / Binding of serum 6 to linear peptides of protein N of SARS-CoV Urbani / Binding of serum 37 to linear peptides of protein N of SARS-CoV Urbani / Binding of serum 6 to linear peptide (PEPSCAN-ELISA) / Binding of serum 1a to looped/cyclic peptides of protein N of SARS-CoV Urbani / Binding of serum 1b to looped/cyclic peptides of protein N of SARS-CoV Urbani / Binding of serum 2 to looped/cyclic peptides of protein N of SARS-CoV Urbani / Binding of serum 6 to looped/cyclic peptides of protein N of SARS-CoV Urbani / Binding of serum 37 to looped/cyclic peptides of protein N of SARS-CoV Urbani / Binding of serum 62 to looped/cyclic peptides of protein N of SARS-CoV Urbani / Binding of serum London to looped/cyclic peptides of protein N of SARS-CoV Urbani / Binding of serum SARS-green to looped/cyclic peptides of protein N of SARS-CoV Urbani: unit not given here
# [3] = system: control sera (pooled serum of ten healthy LUMC hospital workers; commercial negative donor pooled serum from the Dutch bloodbank); type: binding, human; set-up: Binding of Control serum LUMC to linear peptides / Binding of Control serum Blood-bank to linear peptides / Binding of Control serum LUMC to looped peptides / Binding of Control Serum Blood-Bank to Looped peptides / Binding of Control serum LUMC to linear peptides of the protein M of SARS-CoV Urbani / Binding of Control serum Blood-bank to linear peptides of the protein M of SARS-CoV Urbani / Binding of Control serum LUMC to looped peptides of the protein M of SARS-CoV Urbani / Binding of Control Serum Blood-Bank to Looped peptides of the protein M of SARS-CoV Urbani: unit not given here
sequence,measurement,setting,value
DPAGGALIARCWYLH,Rabbit serum linear peptides,[1],0.3
same,Rabbit serum looped peptides,[1],0.5
same,Binding of serum 1a to linear peptides of protein X5 of SARS-CoV Urbani,[2],0.7
same,Binding of serum 1a to looped/cyclic peptides of protein X5 of SARS-CoV Urbani,[2],0.8
same,Binding of serum 1b to linear peptides of protein X5 of SARS-CoV Urbani,[2],0.6
same,Binding of serum 1b to looped/cyclic peptides of protein X5 of SARS-CoV Urbani,[2],0.5
same,Binding of serum 2 to linear peptides of protein X5 of SARS-CoV Urbani,[2],0.4
same,Binding of serum 2 to looped/cyclic peptides of protein X5 of SARS-CoV Urbani,[2],0.5
same,Binding of serum 6 to linear peptides of protein X5 of SARS-CoV Urbani,[2],0.5
same,Binding of serum 6 to looped/cyclic peptides of protein X5 of SARS-CoV Urbani,[2],0.4
same,Binding of serum 37 to linear peptides of protein X5 of SARS-CoV Urbani,[2],0.8
same,Binding of serum 37 to looped/cyclic peptides of protein X5 of SARS-CoV Urbani,[2],0.7
same,Binding of serum 62 to linear peptides of protein X5 of SARS-CoV Urbani,[2],0.7
same,Binding of serum 62 to looped/cyclic peptides of protein X5 of SARS-CoV Urbani,[2],0.6
same,Binding of serum London to linear peptides of protein X5 of SARS-CoV Urbani,[2],0.6
same,Binding of serum London to looped/cyclic peptides of protein X5 of SARS-CoV Urbani,[2],0.2
same,Binding of serum SARS-green to linear peptides of protein X5 of SARS-CoV Urbani,[2],0.6
same,Binding of serum SARS-green to looped/cyclic peptides of protein X5 of SARS-CoV Urbani,[2],0.6
same,Binding of serum SARS-yellow to linear peptides of protein X5 of SARS-CoV Urbani,[2],0.2
same,Binding of serum SARS-yellow to looped/cyclic peptides of protein X5 of SARS-CoV Urbani,[2],0.3
same,Binding of Control Serum Blood-Bank to Looped peptides,[3],0.8
same,Binding of Control serum Blood-bank to linear peptides,[3],0.7
same,Binding of Control serum LUMC to linear peptides,[3],0.3
same,Binding of Control serum LUMC to looped peptides,[3],0.6
DPPNVQIHTIDGSSG,Binding of a rabbit serum to linear peptides,[1],0.1
same,Binding of a rabbit serum to looped peptides,[1],0.4
same,Binding of serum 1a to linear peptides of protein X1 of SARS-CoV Urbani,[2],0.5
same,Binding of serum 1a to looped/cyclic peptides of protein X1 of SARS-CoV Urbani,[2],0.4
same,Binding of serum 1b to linear peptides of protein X1 of SARS-CoV Urbani,[2],0.4
same,Binding of serum 1b to looped/cyclic peptides of protein X1 of SARS-CoV Urbani,[2],0.2
same,Binding of serum 2 to linear peptides of protein X1 of SARS-CoV Urbani,[2],0.3
same,Binding of serum 2 to looped/cyclic peptides of protein X1 of SARS-CoV Urbani,[2],0.2
same,Binding of serum 6 to linear peptides of protein X1 of SARS-CoV Urbani,[2],0.3
same,Binding of serum 6 to looped/cyclic peptides of protein X1 of SARS-CoV Urbani,[2],0.2
same,Binding of serum 37 to linear peptides of protein X1 of SARS-CoV Urbani,[2],0.5
same,Binding of serum 37 to looped/cyclic peptides of protein X1 of SARS-CoV Urbani,[2],0.3
same,Binding of serum 62 to linear peptides of protein X1 of SARS-CoV Urbani,[2],0.4
same,Binding of serum 62 to looped/cyclic peptides of protein X1 of SARS-CoV Urbani,[2],0.3
same,Binding of serum London to linear peptides of protein X1 of SARS-CoV Urbani,[2],0.2
same,Binding of serum London to looped/cyclic peptides of protein X1 of SARS-CoV Urbani,[2],0.2
same,Binding of serum SARS-green to linear peptides of protein X1 of SARS-CoV Urbani,[2],0.2
same,Binding of serum SARS-green to looped/cyclic peptides of protein X1 of SARS-CoV Urbani,[2],0.2
same,Binding of serum SARS-yellow to linear peptides of protein X1 of SARS-CoV Urbani,[2],0.2
same,Binding of serum SARS-yellow to looped/cyclic peptides of protein X1 of SARS-CoV Urbani,[2],0.2
same,Binding of Control Serum Blood-Bank to Looped peptides,[3],0.4
same,Binding of Control serum Blood-bank to linear peptides,[3],0.3
same,Binding of Control serum LUMC to linear peptides,[3],0.3
same,Binding of Control serum LUMC to looped peptides,[3],0.5
